Source: ChEMBL document CHEMBL5046233, “Nitroxoline and its derivatives are potent inhibitors of metallo-β-lactamases” (Eur J Med Chem, 2022)
Converted amounts (≈) assume the structure as drawn. The source made the active and inactive calls. No cut-off for these calls is given here.

What was measured:
Enterobacter cloacae [1] = assay: Potentiation of imipenem-induced antibacterial activity against Enterobacter cloacae T2353 expressing VIM-1 assessed as fold change in imipenem MIC at 32 mg/L by CLSI protocol based broth microdilution assay; type: functional
Escherichia coli [2] = assay: Potentiation of imipenem-induced antibacterial activity against Escherichia coli clinical isolate T2228 expressing VIM-1 assessed as imipenem MIC at 32 mg/L by CLSI protocol based broth microdilution assay; type: functional
Escherichia coli [3] = assay: Bactericidal activity against Escherichia coli T2359 expressing VIM-1 assessed as killing rate at 0.5 XMIC measured after 24 hrs in presence of imipenem by time-kill assay relative to control; type: functional
Bacteria [4] = assay: Inhibition of recombinant VIM-1 (unknown origin) using fluorocillin as substrate at 10 uM incubated for 30 mins by fluorescence based assay
Klebsiella pneumoniae [5] = assay: Antimicrobial activity against Klebsiella pneumoniae T2301 expressing NDM-1 assessed as inhibition of bacterial growth at 0.5XMIC for 6 hrs by CLSI protocol based broth microdilution assay; type: functional, organism-based
Bacteria [6] = assay: Inhibition of recombinant IMP-1 (unknown origin) using fluorocillin as substrate at 3 uM incubated for 30 mins by fluorescence based assay
Escherichia coli [7] = assay: Potentiation of cefuroxime-induced antibacterial activity against Escherichia coli clinical isolate T2228 expressing VIM-1 assessed as cefuroxime MIC at 32 mg/L by CLSI protocol based broth microdilution assay; type: functional
Citrobacter freundii = assay: Potentiation of imipenem-induced antibacterial activity against Citrobacter freundii T2354 expressing VIM-4 assessed as imipenem MIC at 32 mg/L by CLSI protocol based broth microdilution assay; type: functional
Escherichia coli [8] = assay: Antimicrobial activity against Escherichia coli T2359 expressing VIM-1 assessed as inhibition of bacterial growth at 0.5XMIC for 6 hrs by CLSI protocol based broth microdilution assay; type: functional, organism-based
[9] = Cytotoxicity against human HUVEC cells assessed as metabolic activity measured after 24 hrs by cell-titer blue assay; type: toxicity, cell-based
Escherichia coli [10] = assay: Potentiation of imipenem-induced antibacterial activity against Escherichia coli T2544 expressing VIM-1 assessed as imipenem MIC at 32 mg/L by CLSI protocol based broth microdilution assay; type: functional
Serratia marcescens = assay: Potentiation of imipenem-induced antibacterial activity against Serratia marcescens T2352 expressing NDM-1 assessed as fold change in imipenem MIC at 32 mg/L by CLSI protocol based broth microdilution assay; type: functional
Escherichia coli [11] = assay: Antimicrobial activity against Escherichia coli T2359 expressing VIM-1 assessed as assessed as inhibition of bacterial growth at 0.5XMIC measured after 24 hrs by time-kill assay; type: functional, organism-based
Klebsiella pneumoniae [12] = assay: Potentiation of cefuroxime-induced antibacterial activity against Klebsiella pneumoniae clinical isolate T2301 expressing NDM-1 assessed as cefuroxime MIC at 32 mg/L by CLSI protocol based broth microdilution assay; type: functional
Escherichia coli [13] = assay: Synergistic antibacterial activity against Escherichia coli clinical isolate T2228 expressing VIM-1 assessed as fractional inhibitory concentration index in presence of imipenem by checkerboard assay; type: functional
Klebsiella pneumoniae [14] = assay: Synergistic antibacterial activity against Klebsiella pneumoniae clinical isolate T2301 expressing NDM-1 assessed as fractional inhibitory concentration index in presence of imipenem by checkerboard assay; type: functional
Bacteria [15] = assay: Inhibition of recombinant IMP-1 (unknown origin) using fluorocillin as substrate at 10 uM incubated for 30 mins by fluorescence based assay
Enterobacter cloacae [16] = assay: Potentiation of imipenem-induced antibacterial activity against Enterobacter cloacae T2311 expressing NDM-1 assessed as fold change in imipenem MIC at 32 mg/L by CLSI protocol based broth microdilution assay; type: functional
Escherichia coli [17] = assay: Antimicrobial activity against Escherichia coli T2359 expressing NDM-1 assessed as inhibition of bacterial growth by CLSI protocol based broth microdilution assay; type: functional
Escherichia coli [18] = assay: Synergistic antibacterial activity against Escherichia coli T2359 expressing NDM-1 assessed as fractional inhibitory concentration index in presence of imipenem by checkerboard assay; type: functional
Escherichia coli [19] = assay: Potentiation of imipenem-induced antibacterial activity against Escherichia coli T2351 expressing NDM-5 assessed as imipenem MIC at 32 mg/L by CLSI protocol based broth microdilution assay; type: functional
Bacteria [20] = assay: Inhibition of recombinant VIM-1 (unknown origin) using fluorocillin as substrate at 30 uM incubated for 30 mins by fluorescence based assay
Klebsiella pneumoniae [21] = assay: Potentiation of ciprofloxacin-induced antibacterial activity against Klebsiella pneumoniae clinical isolate T2301 expressing NDM-1 assessed as ciprofloxacin MIC at 32 mg/L by CLSI protocol based broth microdilution assay; type: functional
Klebsiella pneumoniae [22] = assay: Potentiation of imipenem-induced antibacterial activity against Klebsiella pneumoniae T2216 expressing VIM-1 assessed as fold change in imipenem MIC at 32 mg/L by CLSI protocol based broth microdilution assay; type: functional
Klebsiella pneumoniae [23] = assay: Potentiation of imipenem-induced antibacterial activity against Klebsiella pneumoniae T2216 expressing VIM-1 assessed as imipenem MIC at 32 mg/L by CLSI protocol based broth microdilution assay; type: functional
Enterobacter cloacae [24] = assay: Potentiation of imipenem-induced antibacterial activity against Enterobacter cloacae T2311 expressing NDM-1 assessed as imipenem MIC at 32 mg/L by CLSI protocol based broth microdilution assay; type: functional
Pseudomonas aeruginosa [25] = assay: Potentiation of imipenem-induced antibacterial activity against Pseudomonas aeruginosa T2357 expressing VIM-1 assessed as fold change in imipenem MIC at 32 mg/L by CLSI protocol based broth microdilution assay; type: functional
Enterobacter cloacae [26] = assay: Potentiation of imipenem-induced antibacterial activity against Enterobacter cloacae T2218 expressing GIM-1 assessed as imipenem MIC at 32 mg/L by CLSI protocol based broth microdilution assay; type: functional
Pseudomonas aeruginosa [27] = assay: Potentiation of imipenem-induced antibacterial activity against Pseudomonas aeruginosa T2282 expressing VIM-2 assessed as fold change in imipenem MIC at 32 mg/L by CLSI protocol based broth microdilution assay; type: functional
Pseudomonas aeruginosa [28] = assay: Potentiation of imipenem-induced antibacterial activity against Pseudomonas aeruginosa T2283 expressing VIM-2 assessed as imipenem MIC at 32 mg/L by CLSI protocol based broth microdilution assay; type: functional
Pseudomonas aeruginosa [29] = assay: Potentiation of imipenem-induced antibacterial activity against Pseudomonas aeruginosa T2217 expressing VIM-2 assessed as fold change in imipenem MIC at 32 mg/L by CLSI protocol based broth microdilution assay; type: functional
Escherichia coli [30] = assay: Potentiation of imipenem-induced antibacterial activity against Escherichia coli T2435 expressing KPC-2 assessed as imipenem MIC at 32 mg/L by CLSI protocol based broth microdilution assay; type: functional
Klebsiella pneumoniae [31] = assay: Potentiation of imipenem-induced antibacterial activity against Klebsiella pneumoniae T2432 expressing KPC-9 assessed as imipenem MIC at 32 mg/L by CLSI protocol based broth microdilution assay; type: functional
Klebsiella pneumoniae [32] = assay: Potentiation of imipenem-induced antibacterial activity against Klebsiella pneumoniae clinical isolate T2301 expressing NDM-1 assessed as imipenem MIC at 32 mg/L by CLSI protocol based broth microdilution assay; type: functional
Escherichia coli [33] = assay: Potentiation of imipenem-induced antibacterial activity against Escherichia coli T2433 expressing OXA-48 assessed as fold change in imipenem MIC at 32 mg/L by CLSI protocol based broth microdilution assay; type: functional

**Q.** What does the source list for `N#CCN(Cc1ccccc1)Cc1cc([N+](=O)[O-])c2cccnc2c1O`?
**A.** fold change (FC) (Enterobacter cloacae [1]): 8; MIC (Escherichia coli [2]): 1 ng/mL; Activity (Escherichia coli [3]): >99.9%; inhibition (Bacteria [4]): 100%; inhibition (Klebsiella pneumoniae [5]): Active; inhibition (Bacteria [6]): 59%; MIC (Escherichia coli [7]): 2 ng/mL; MIC (Citrobacter freundii): 0.25 µg/mL; inhibition (Escherichia coli [8]): Active; IC50 at 24 h [9]: 45 µg/mL (≈ 129 µM); MIC (Escherichia coli [10]): 0.5 ng/mL; fold change (FC) (Serratia marcescens): 1024; Activity (Escherichia coli [11]): inactive; MIC (Klebsiella pneumoniae [12]): 4.1 µg/mL; fractional inhibitory concentration index (FICI) (Escherichia coli [13]): 0.265; fractional inhibitory concentration index (FICI) (Klebsiella pneumoniae [14]): 0.265; inhibition (Bacteria [15]): 93%; fold change (FC) (Enterobacter cloacae [16]): 16; MIC (Escherichia coli [17]): > 0.064 µg/mL; fractional inhibitory concentration index (FICI) (Escherichia coli [18]): 0.265; MIC (Escherichia coli [19]): 1 ng/mL; inhibition (Bacteria [20]): 100%; MIC (Klebsiella pneumoniae [21]): 0.128 µg/mL; fold change (FC) (Klebsiella pneumoniae [22]): 8; MIC (Klebsiella pneumoniae [23]): 0.5 ng/mL; MIC (Enterobacter cloacae [24]): 0.5 ng/mL; fold change (FC) (Pseudomonas aeruginosa [25]): 32; MIC (Enterobacter cloacae [26]): 0.5 ng/mL; fold change (FC) (Pseudomonas aeruginosa [27]): 32; MIC (Pseudomonas aeruginosa [28]): 1 ng/mL; fold change (FC) (Pseudomonas aeruginosa [29]): 16; MIC (Escherichia coli [30]): 4 ng/mL; MIC (Klebsiella pneumoniae [31]): 0.016 µg/mL; MIC (Klebsiella pneumoniae [32]): 0.25 µg/mL; fold change (FC) (Escherichia coli [33]): 1
